Experimental data taken from patent US11427549B2, “Pyrimidinyloxy benzo-fused compounds as herbicides” (FMC Corporation, priority 2017, dated 2022).

Key:
[1] = tested on: galium (catchweed bedstraw, Galium aparine); experiment: Test A postemergence, galium; assay type: in vivo; conditions: Galium, post-emergence, 240 h, 0 to 100 scale (0 no effect, 100 complete control), read-out: Plant response rating, Galium; for pest or weed control at 31 g/ha: 31 g ai/ha; for pest or weed control at 125 g/ha: 125 g ai/ha
[2] = tested on: rice (Oryza sativa); experiment: Test B flooded paddy test, rice; conditions: Oryza sativa, read-out: Plant response rating, Rice (0 to 100 scale, 0 is no effect, 100 is complete control)
[3] = tested on: barnyardgrass (Echinochloa crus-galli); experiment: Test A postemergence, barnyardgrass; assay type: in vivo; conditions: Echinochloa crus-galli, post-emergence, 240 h, 0 to 100 scale (0 no effect, 100 complete control), read-out: Plant response rating, Barnyardgrass; for pest or weed control at 31 g/ha: 31 g ai/ha; for pest or weed control at 125 g/ha: 125 g ai/ha
[4] = tested on: foxtail, green (green foxtail, Setaria viridis); experiment: Test A postemergence, foxtail, green; assay type: in vivo; conditions: Setaria, post-emergence, 240 h, 0 to 100 scale (0 no effect, 100 complete control), read-out: Plant response rating, Foxtail, Green; for pest or weed control at 31 g/ha: 31 g ai/ha; for pest or weed control at 125 g/ha: 125 g ai/ha
Excerpt: Seeds of plant species selected from barnyardgrass (Echinochloa crus-galli), kochia (Kochia scoparia), ragweed (common ragweed, Ambrosia elatior), ryegrass, Italian (Italian ryegrass, Lolium multiflorum), foxtail, giant (giant foxtail, Setaria faberii), foxtail, green (green foxtail, Setaria viridis) and pigweed (Amaranthus retroflexus) were planted into a blend of loam soil and sand and treated preemergence with a directed soil spray using test chemicals formulated in a non-phytotoxic solvent mixture which included a surfactant.
At the same time, plants selected from these weed species and also wheat (Triticum aestivum), corn (Zea mays), blackgrass (Alopecurus myosuroides), and galium (catchweed bedstraw, Galium aparine) were planted in pots containing the same blend of loam soil and sand and treated with postemergence applications of test chemicals formulated in the same manner. Plants ranged in height from 2 to 10 cm and were in the one- to two-leaf stage for the postemergence treatment. Treated plants and untreated controls were maintained in a greenhouse for approximately 10 days, after which time all treated plants were compared to untreated controls and visually evaluated for injury. […] A dash (-) response means no test result.

[5] = tested on: pigweed (Amaranthus retroflexus); experiment: Test A preemergence, pigweed; assay type: in vivo; conditions: Amaranthus retroflexus, pre-emergence, 240 h, 0 to 100 scale (0 no effect, 100 complete control), read-out: Plant response rating, Pigweed; for pest or weed control at 31 g/ha: 31 g ai/ha; for pest or weed control at 125 g/ha: 125 g ai/ha
[6] = tested on: barnyardgrass (Echinochloa crus-galli); experiment: Test B flooded paddy test, barnyardgrass; conditions: Echinochloa crus-galli, read-out: Plant response rating, Barnyardgrass (0 to 100 scale, 0 is no effect, 100 is complete control)
[7] = tested on: kochia (Kochia scoparia); experiment: Test A postemergence, kochia; assay type: in vivo; conditions: Bassia scoparia, post-emergence, 240 h, 0 to 100 scale (0 no effect, 100 complete control), read-out: Plant response rating, Kochia; for pest or weed control at 31 g/ha: 31 g ai/ha; for pest or weed control at 125 g/ha: 125 g ai/ha
[8] = tested on: ragweed (common ragweed, Ambrosia elatior); experiment: Test A preemergence, ragweed; assay type: in vivo; conditions: Ambrosia artemisiifolia, pre-emergence, 240 h, 0 to 100 scale (0 no effect, 100 complete control), read-out: Plant response rating, Ragweed; for pest or weed control at 31 g/ha: 31 g ai/ha; for pest or weed control at 125 g/ha: 125 g ai/ha
[9] = tested on: ryegrass, Italian (Italian ryegrass, Lolium multiflorum); experiment: Test A preemergence, ryegrass, Italian; assay type: in vivo; conditions: Lolium multiflorum, pre-emergence, 240 h, 0 to 100 scale (0 no effect, 100 complete control), read-out: Plant response rating, Ryegrass, Italian; for pest or weed control at 31 g/ha: 31 g ai/ha; for pest or weed control at 125 g/ha: 125 g ai/ha
[10] = tested on: ryegrass, Italian (Italian ryegrass, Lolium multiflorum); experiment: Test A postemergence, ryegrass, Italian; assay type: in vivo; conditions: Lolium multiflorum, post-emergence, 240 h, 0 to 100 scale (0 no effect, 100 complete control), read-out: Plant response rating, Ryegrass, Italian; for pest or weed control at 31 g/ha: 31 g ai/ha; for pest or weed control at 125 g/ha: 125 g ai/ha
[11] = tested on: kochia (Kochia scoparia); experiment: Test A preemergence, kochia; assay type: in vivo; conditions: Bassia scoparia, pre-emergence, 240 h, 0 to 100 scale (0 no effect, 100 complete control), read-out: Plant response rating, Kochia; for pest or weed control at 31 g/ha: 31 g ai/ha; for pest or weed control at 125 g/ha: 125 g ai/ha
[12] = tested on: ducksalad (Heteranthera limosa); experiment: Test B flooded paddy test, ducksalad; conditions: Heteranthera limosa, read-out: Plant response rating, Ducksalad (0 to 100 scale, 0 is no effect, 100 is complete control)
[13] = tested on: corn (Zea mays); experiment: Test A postemergence, corn; assay type: in vivo; conditions: Zea mays, post-emergence, 240 h, 0 to 100 scale (0 no effect, 100 complete control); for Corn plant response rating (crop injury, 0 = no effect, 100 = complete kill) at 31 g/ha: 31 g ai/ha; for Corn plant response rating (crop injury, 0 = no effect, 100 = complete kill) at 125 g/ha: 125 g ai/ha
[14] = tested on: wheat (Triticum aestivum); experiment: Test A postemergence, wheat; assay type: in vivo; conditions: Triticum aestivum, post-emergence, 240 h, 0 to 100 scale (0 no effect, 100 complete control), read-out: Plant response rating, Wheat; for plant injury at 31 g/ha: 31 g ai/ha; for plant injury at 125 g/ha: 125 g ai/ha
[15] = tested on: barnyardgrass (Echinochloa crus-galli); experiment: Test A preemergence, barnyardgrass; assay type: in vivo; conditions: Echinochloa crus-galli, pre-emergence, 240 h, 0 to 100 scale (0 no effect, 100 complete control), read-out: Plant response rating, Barnyardgrass; for pest or weed control at 31 g/ha: 31 g ai/ha; for pest or weed control at 125 g/ha: 125 g ai/ha
[16] = tested on: blackgrass (Alopecurus myosuroides); experiment: Test A postemergence, blackgrass; assay type: in vivo; conditions: Alopecurus myosuroides, post-emergence, 240 h, 0 to 100 scale (0 no effect, 100 complete control), read-out: Plant response rating, Blackgrass; for pest or weed control at 31 g/ha: 31 g ai/ha; for pest or weed control at 125 g/ha: 125 g ai/ha
[17] = tested on: ragweed (common ragweed, Ambrosia elatior); experiment: Test A postemergence, ragweed; assay type: in vivo; conditions: Ambrosia artemisiifolia, post-emergence, 240 h, 0 to 100 scale (0 no effect, 100 complete control), read-out: Plant response rating, Ragweed; for pest or weed control at 31 g/ha: 31 g ai/ha; for pest or weed control at 125 g/ha: 125 g ai/ha
[18] = tested on: pigweed (Amaranthus retroflexus); experiment: Test A postemergence, pigweed; assay type: in vivo; conditions: Amaranthus retroflexus, post-emergence, 240 h, 0 to 100 scale (0 no effect, 100 complete control), read-out: Plant response rating, Pigweed; for pest or weed control at 31 g/ha: 31 g ai/ha; for pest or weed control at 125 g/ha: 125 g ai/ha

SMILES: FC(F)(F)CCCC1OCc2cccc(Oc3ncc(Cl)cn3)c21 (stereo not drawn) [Compound 7, 5-chloro-2-[[1,3-dihydro-3-(4,4,4-trifluorobutyl)-4-isobenzofuranyl]oxy]-pyrimidine]
- pest or weed control at 31 g/ha [1]: 50%
- pest or weed control at 125 g/ha [1]: 100%
- plant injury at 250 g/ha [2]: 40%
- pest or weed control at 31 g/ha [3]: 20%
- pest or weed control at 125 g/ha [3]: 60%
- pest or weed control at 31 g/ha [4]: 30%
- pest or weed control at 125 g/ha [4]: 90%
- pest or weed control at 31 g/ha [5]: 20%
- pest or weed control at 125 g/ha [5]: 100%
- pest or weed control at 250 g/ha [6]: 40%
- pest or weed control at 31 g/ha [7]: 90%
- pest or weed control at 125 g/ha [7]: 100%
- pest or weed control at 31 g/ha [8]: 0%
- pest or weed control at 125 g/ha [8]: 0%
- pest or weed control at 31 g/ha [9]: 0%
- pest or weed control at 125 g/ha [9]: 50%
- pest or weed control at 31 g/ha [10]: 20%
- pest or weed control at 125 g/ha [10]: 60%
- pest or weed control at 31 g/ha [11]: 0%
- pest or weed control at 125 g/ha [11]: 100%
- pest or weed control at 250 g/ha [12]: 100%
- Corn plant response rating (crop injury, 0 = no effect, 100 = complete kill) at 31 g/ha [13]: 20%
- Corn plant response rating (crop injury, 0 = no effect, 100 = complete kill) at 125 g/ha [13]: 40%
- plant injury at 31 g/ha [14]: 10%
- plant injury at 125 g/ha [14]: 30%
- pest or weed control at 31 g/ha [15]: 20%
- pest or weed control at 125 g/ha [15]: 90%
- pest or weed control at 31 g/ha [16]: 10%
- pest or weed control at 125 g/ha [16]: 70%
- pest or weed control at 31 g/ha [17]: 0%
- pest or weed control at 125 g/ha [17]: 0%
- pest or weed control at 31 g/ha [18]: 80%
- pest or weed control at 125 g/ha [18]: 100%

SMILES: FC(F)(F)CCCC1CCc2cccc(Oc3ncc(Cl)cn3)c21 (stereo not drawn) [Compound 9, 5-Chloro-2-[[2,3-dihydro-3-(4,4,4-trifluorobutyl)-1H-inden-4-yl]oxy]pyrimidine]
- pest or weed control at 31 g/ha [1]: 20%
- pest or weed control at 125 g/ha [1]: 30%
- plant injury at 250 g/ha [2]: 50%
- pest or weed control at 31 g/ha [3]: 20%
- pest or weed control at 125 g/ha [3]: 50%
- pest or weed control at 31 g/ha [4]: 20%
- pest or weed control at 125 g/ha [4]: 60%
- pest or weed control at 31 g/ha [5]: 10%
- pest or weed control at 125 g/ha [5]: 100%
- pest or weed control at 250 g/ha [6]: 70%
- pest or weed control at 31 g/ha [7]: 50%
- pest or weed control at 125 g/ha [7]: 80%
- pest or weed control at 31 g/ha [8]: 0%
- pest or weed control at 125 g/ha [8]: 10%
- pest or weed control at 31 g/ha [9]: 10%
- pest or weed control at 125 g/ha [9]: 50%
- pest or weed control at 31 g/ha [10]: 10%
- pest or weed control at 125 g/ha [10]: 30%
- pest or weed control at 31 g/ha [11]: 10%
- pest or weed control at 125 g/ha [11]: 50%
- pest or weed control at 250 g/ha [12]: 100%
- Corn plant response rating (crop injury, 0 = no effect, 100 = complete kill) at 31 g/ha [13]: 20%
- Corn plant response rating (crop injury, 0 = no effect, 100 = complete kill) at 125 g/ha [13]: 30%
- plant injury at 31 g/ha [14]: 10%
- plant injury at 125 g/ha [14]: 20%
- pest or weed control at 31 g/ha [15]: 10%
- pest or weed control at 125 g/ha [15]: 90%
- pest or weed control at 31 g/ha [16]: 20%
- pest or weed control at 125 g/ha [16]: 80%
- pest or weed control at 31 g/ha [17]: 0%
- pest or weed control at 125 g/ha [17]: 10%
- pest or weed control at 31 g/ha [18]: 80%
- pest or weed control at 125 g/ha [18]: 100%
